The source made the active and inactive calls. No cut-off for these calls is given here.

The subject of one series is HeLa. The series can be described thus: Antiproliferative activity against human HeLa cells assessed as cell viability at 50 uM incubated for 24 hrs by MTT assay relative to control. Format: functional. To be noted: read-out: Activity.
Take `Cc1ccc(NC(=S)OCc2ccc(O[C@@H]3O[C@H](CO)[C@@H](O)[C@H](O)[C@H]3O)cc2)cc1`: the viability at 50 µM was found to be 86.9%.

`OC[C@H]1O[C@H](Oc2ccc(COC(=S)Nc3ccc(C(F)(F)F)cc3)cc2)[C@@H](O)[C@@H](O)[C@@H]1O`: the viability at 50 µM amounted to 97.4%.

Turning to `Cc1ccc(NC(=S)OCc2ccc(O[C@@H]3O[C@H](CO)[C@H](O)[C@H](O)[C@H]3O)cc2)cc1`, the viability at 50 µM came to 97.1%.

With `OC[C@H]1O[C@@H](Oc2ccc(COC(=S)Nc3ccc(C(F)(F)F)cc3)cc2Br)[C@H](O)[C@@H](O)[C@@H]1O`, the viability at 50 µM turned out to be 95.3%.

On to `OC[C@H]1O[C@@H](Oc2ccc(COC(=S)Nc3ccc(C(F)(F)F)cc3)cc2F)[C@H](O)[C@@H](O)[C@H]1O`, for which the viability at 50 µM was 94.6%.

A further series concerns HepG2. Briefly: Antiproliferative activity against human HepG2 cells assessed as cell viability at 50 uM incubated for 24 hrs by MTT assay relative to control. To be noted: read-out: Activity. It counts as functional. (Tetrazolium dyes change colour on reduction, which living cells bring about.)
Take `Cc1ccc(NC(=S)OCc2ccc(O[C@@H]3O[C@H](CO)[C@@H](O)[C@H](O)[C@H]3O)cc2)cc1`: the viability at 50 µM was determined as 91%.

On to `OC[C@H]1O[C@H](Oc2ccc(COC(=S)Nc3ccc(C(F)(F)F)cc3)cc2)[C@@H](O)[C@@H](O)[C@@H]1O`, for which the viability at 50 µM came to 81.7%.

In the case of `Cc1ccc(NC(=S)OCc2ccc(O[C@@H]3O[C@H](CO)[C@H](O)[C@H](O)[C@H]3O)cc2)cc1`, the viability at 50 µM was 95.8%.

For `OC[C@H]1O[C@@H](Oc2ccc(COC(=S)Nc3ccc(C(F)(F)F)cc3)cc2Br)[C@H](O)[C@@H](O)[C@@H]1O`, the viability at 50 µM came out at 87.3%.

With `OC[C@H]1O[C@@H](Oc2ccc(COC(=S)Nc3ccc(C(F)(F)F)cc3)cc2F)[C@H](O)[C@@H](O)[C@H]1O`, the viability at 50 µM turned out to be 88.9%.

Tested on in another series: not listed separately
The series can be described thus: Antiproliferative activity against mouse 3T3 cells assessed as cell viability at 50 uM incubated for 24 hrs by MTT assay relative to control. It counts as toxicity, cell-based. To be noted: NIH3T3 cells, read-out: Activity.
Regarding `Cc1ccc(NC(=S)OCc2ccc(O[C@@H]3O[C@H](CO)[C@@H](O)[C@H](O)[C@H]3O)cc2)cc1`, the viability at 24 h, 50 µM came to 102%.

Turning to `OC[C@H]1O[C@H](Oc2ccc(COC(=S)Nc3ccc(C(F)(F)F)cc3)cc2)[C@@H](O)[C@@H](O)[C@@H]1O`, the viability at 24 h, 50 µM worked out at 94.5%.

`Cc1ccc(NC(=S)OCc2ccc(O[C@@H]3O[C@H](CO)[C@H](O)[C@H](O)[C@H]3O)cc2)cc1`: the viability at 24 h, 50 µM was 110%.

Regarding `OC[C@H]1O[C@@H](Oc2ccc(COC(=S)Nc3ccc(C(F)(F)F)cc3)cc2Br)[C@H](O)[C@@H](O)[C@@H]1O`, the viability at 24 h, 50 µM came to 93.5%.

For the compound `OC[C@H]1O[C@@H](Oc2ccc(COC(=S)Nc3ccc(C(F)(F)F)cc3)cc2F)[C@H](O)[C@@H](O)[C@H]1O`, the viability at 24 h, 50 µM came out at 97.3%.

For another series, the system named is HeLa. Briefly: Antiproliferative activity against human HeLa cells assessed as cell viability at 80 uM incubated for 24 hrs by MTT assay relative to control. Format: functional. To be noted: read-out: Activity.
Regarding `Cc1ccc(NC(=S)OCc2ccc(O[C@@H]3O[C@H](CO)[C@@H](O)[C@H](O)[C@H]3O)cc2)cc1`, the viability at 80 µM was 90.8%.

In the case of `OC[C@H]1O[C@H](Oc2ccc(COC(=S)Nc3ccc(C(F)(F)F)cc3)cc2)[C@@H](O)[C@@H](O)[C@@H]1O`, the viability at 80 µM turned out to be 95%.

In the case of `Cc1ccc(NC(=S)OCc2ccc(O[C@@H]3O[C@H](CO)[C@H](O)[C@H](O)[C@H]3O)cc2)cc1`, the viability at 80 µM was 96.3%.

Consider `OC[C@H]1O[C@@H](Oc2ccc(COC(=S)Nc3ccc(C(F)(F)F)cc3)cc2Br)[C@H](O)[C@@H](O)[C@@H]1O`, for which the viability at 80 µM came to 92.1%.

As for `OC[C@H]1O[C@@H](Oc2ccc(COC(=S)Nc3ccc(C(F)(F)F)cc3)cc2F)[C@H](O)[C@@H](O)[C@H]1O`, the viability at 80 µM was determined as 96%.

The test system of another series is HepG2. The series can be described thus: Antiproliferative activity against human HepG2 cells assessed as cell viability at 80 uM incubated for 24 hrs by MTT assay relative to control. It counts as functional. Particulars: read-out: Activity.
With `Cc1ccc(NC(=S)OCc2ccc(O[C@@H]3O[C@H](CO)[C@@H](O)[C@H](O)[C@H]3O)cc2)cc1`, the viability at 80 µM stood at 85.3%.

As to `O=C(Nc1ccc(C(F)(F)F)cc1)OCc1ccc(O[C@H]2O[C@H](CO)[C@@H](O)[C@H](O)[C@@H]2O)c(Br)c1`, the viability at 80 µM was 51.6%.

`OC[C@H]1O[C@H](Oc2ccc(COC(=S)Nc3ccc(C(F)(F)F)cc3)cc2)[C@@H](O)[C@@H](O)[C@@H]1O`: the viability at 80 µM is 90.2%.

For the compound `Cc1ccc(NC(=S)OCc2ccc(O[C@@H]3O[C@H](CO)[C@H](O)[C@H](O)[C@H]3O)cc2)cc1`, the viability at 80 µM was 96.9%.

As for `OC[C@H]1O[C@@H](Oc2ccc(COC(=S)Nc3ccc(C(F)(F)F)cc3)cc2Br)[C@H](O)[C@@H](O)[C@@H]1O`, the viability at 80 µM is 61.8%.

With `OC[C@H]1O[C@@H](Oc2ccc(COC(=S)Nc3ccc(C(F)(F)F)cc3)cc2F)[C@H](O)[C@@H](O)[C@H]1O`, the viability at 80 µM worked out at 86%.

Tested on in the next series: not listed separately
The series can be described thus: Antiproliferative activity against mouse 3T3 cells assessed as cell viability at 80 uM incubated for 24 hrs by MTT assay relative to control. Format: toxicity, cell-based. To be noted: NIH3T3 cells, read-out: Activity.
For `Cc1ccc(NC(=S)OCc2ccc(O[C@@H]3O[C@H](CO)[C@@H](O)[C@H](O)[C@H]3O)cc2)cc1`, the viability at 24 h, 80 µM worked out at 95%.

For the compound `OC[C@H]1O[C@H](Oc2ccc(COC(=S)Nc3ccc(C(F)(F)F)cc3)cc2)[C@@H](O)[C@@H](O)[C@@H]1O`, the viability at 24 h, 80 µM was found to be 95.3%.

Consider `Cc1ccc(NC(=S)OCc2ccc(O[C@@H]3O[C@H](CO)[C@H](O)[C@H](O)[C@H]3O)cc2)cc1`, for which the viability at 24 h, 80 µM was 103%.

Take `OC[C@H]1O[C@@H](Oc2ccc(COC(=S)Nc3ccc(C(F)(F)F)cc3)cc2Br)[C@H](O)[C@@H](O)[C@@H]1O`: the viability at 24 h, 80 µM came out at 92.7%.

`OC[C@H]1O[C@@H](Oc2ccc(COC(=S)Nc3ccc(C(F)(F)F)cc3)cc2F)[C@H](O)[C@@H](O)[C@H]1O`: the viability at 24 h, 80 µM was 87.9%.

A further series deals with HepG2. Briefly: Induction of apoptosis in human HepG2 cells at 80 uM incubated for 24 hrs by annexin V-FITC/propidium iodide staining based flow cytometry analysis relative to control. It counts as functional.
Conditions: not given
A general note: A flow cytometer gives signals particle by particle.
As for `Cc1ccc(NC(=S)OCc2ccc(O[C@@H]3O[C@H](CO)[C@@H](O)[C@H](O)[C@H]3O)cc2)cc1`, the result was inactive.

In the case of `OC[C@H]1O[C@H](Oc2ccc(COC(=S)Nc3ccc(C(F)(F)F)cc3)cc2)[C@@H](O)[C@@H](O)[C@@H]1O`, the outcome was inactive.

`Cc1ccc(NC(=S)OCc2ccc(O[C@@H]3O[C@H](CO)[C@H](O)[C@H](O)[C@H]3O)cc2)cc1`: the result was inactive.

Take `OC[C@H]1O[C@@H](Oc2ccc(COC(=S)Nc3ccc(C(F)(F)F)cc3)cc2Br)[C@H](O)[C@@H](O)[C@@H]1O`: the outcome was inactive.

For `OC[C@H]1O[C@@H](Oc2ccc(COC(=S)Nc3ccc(C(F)(F)F)cc3)cc2F)[C@H](O)[C@@H](O)[C@H]1O`, the outcome was inactive.

The subject of a further series is HeLa. The series can be described thus: Induction of apoptosis in human HeLa cells at 80 uM incubated for 24 hrs by annexin V-FITC/propidium iodide staining based flow cytometry analysis relative to control. Format: functional.
Conditions: not given
For `Cc1ccc(NC(=S)OCc2ccc(O[C@@H]3O[C@H](CO)[C@@H](O)[C@H](O)[C@H]3O)cc2)cc1`, the outcome was inactive.

As to `OC[C@H]1O[C@H](Oc2ccc(COC(=S)Nc3ccc(C(F)(F)F)cc3)cc2)[C@@H](O)[C@@H](O)[C@@H]1O`, the result was inactive.

For the compound `Cc1ccc(NC(=S)OCc2ccc(O[C@@H]3O[C@H](CO)[C@H](O)[C@H](O)[C@H]3O)cc2)cc1`, the result was inactive.

Take `OC[C@H]1O[C@@H](Oc2ccc(COC(=S)Nc3ccc(C(F)(F)F)cc3)cc2Br)[C@H](O)[C@@H](O)[C@@H]1O`: the result was inactive.

`OC[C@H]1O[C@@H](Oc2ccc(COC(=S)Nc3ccc(C(F)(F)F)cc3)cc2F)[C@H](O)[C@@H](O)[C@H]1O`: the result was inactive.

In the next series the test system is HepG2. The series can be described thus: Cytotoxicity against human HepG2 cells assessed as cell viability at 2 ug/ml incubated for 24 hrs by MTT assay relative to control. It counts as functional. To be noted: read-out: Activity.
For the compound `COc1cccc2c1C(=O)c1c(O)c3c(c(O)c1C2=O)C[C@@](O)(C(=O)CO)C[C@@H]3O[C@H]1C[C@H](N)[C@H](O)[C@H](C)O1` [DOXORUBICIN], the viability at 2 µg/mL is 100%.

Tested on in the next series: not listed separately
Briefly: Release of H2S in PBS at 50 uM at pH 7.4. It counts as physicochemical. To be noted: buffer, pH 7.4, 50 µM.
Compound `Cc1ccc(NC(=S)OCc2ccc(O[C@@H]3O[C@H](CO)[C@@H](O)[C@H](O)[C@H]3O)cc2)cc1` showed an Activity of 36%.

Regarding `OC[C@H]1O[C@H](Oc2ccc(COC(=S)Nc3ccc(C(F)(F)F)cc3)cc2)[C@@H](O)[C@@H](O)[C@@H]1O`, the Activity is reported as 36%.

As for `Cc1ccc(NC(=S)OCc2ccc(O[C@@H]3O[C@H](CO)[C@H](O)[C@H](O)[C@H]3O)cc2)cc1`, the Activity worked out at 36%.

`OC[C@H]1O[C@@H](Oc2ccc(COC(=S)Nc3ccc(C(F)(F)F)cc3)cc2Br)[C@H](O)[C@@H](O)[C@@H]1O` came in with an Activity of 36%.

`OC[C@H]1O[C@@H](Oc2ccc(COC(=S)Nc3ccc(C(F)(F)F)cc3)cc2F)[C@H](O)[C@@H](O)[C@H]1O` displayed an Activity of 36%.
